Series [1] relates to radiolabeled mAb-conjugates. Briefly: In vitro Label release from radiolabeled mAb-TCO-chelate conjugates incubated with Cleaving Agents (SEC). To be noted: 37°C, 15-24 h. The procedure:
Briefly, mAb solutions in PBS (4 mg/mL final concentration) were added with 15-20 eq of the NHS-derivative (dissolved at 10 mg/mL in DMSO) and the pH was adjusted to 9 with 1M sodium carbonate. The reaction mixtures were incubated at rt in the dark for 2 h then the products were purified by dialysis (20 kDa MW cut-off membranes) in chelex-treated 0.25M NH4OAc pH 5.5.
After 15-24 h incubation the mixtures were analyzed by SEC and the amount of released Label was quantified from the radioactivity elution profile.

Series [2] can be described thus: ^111In biodistribution in normal mice after ^111In-trastuzumab-1.8 followed by 2.10 or vehicle. The format is in vivo.
Series [3] in a line: Radioactivity in blood and tumors stated jointly for LS174T and BT-474 tumor-bearing mice (^111In-trastuzumab-1.8, 2.10). To be noted: ^111In-trastuzumab-1.8 followed by 2.10 48 h post-injection. The format is in vivo. The procedure:
Female Balb/C mice were injected ca 1 million LS174T colon carcinoma cells or 10 million BT-474 breast cancer cells s.c. in the flank. […] Control groups were euthanized 72 h post-mAb injection.

On the set-up of series [4]: species or system mice. The note with it: female, Balb/C nude, mouse, in vivo. The procedure: Blood samples were withdrawn 5 min before and at various times after Cleaving Agent administration and the radioactivity was measured in a gamma-counter.
Setting [5] is: Label release from TCO derivative 1.8 on trastuzumab, ^111In, 50% mouse plasma in PBS.
The mark [6] stands for this setting: ^111In-trastuzumab-1.8 followed by 2.10 1 h post-mAb, euthanized 24 h later, SD, n = 4.
The mark [7] stands for this setting: ^111In-trastuzumab-1.8 followed by 2.10 24 h post-mAb, euthanized 24 h later, SD, n = 4.

Marks after values point to notes of the source that are not given here.

Consider `O=C(CCCC(=O)Nc1cnccc1-c1nnc(-c2ccncc2NC(=O)CCCC(=O)NCCOCCOCCOCCOCCOCCOCCOCCOCCOCCO)nn1)NCCOCCOCCOCCOCCOCCOCCOCCOCCOCCO` [Compound 2.10, N^1,N^1′-(4,4′-(1,2,4,5-Tetrazine-3,6-diyl)bis(pyridine-4,3-diyl))bis(N^5-(29-hydroxy-3,6,9,12,15,18,21,24,27-nonaoxanonacosyl)glutaramide)], for which the “release (%)” value in series [1] (Label release from TCO derivative 1.14 on CC49, ^89Zr, PBS) turned out to be 45.2%; in series [1] (Label release from TCO derivative 1.15 on CC49, ^89Zr, PBS), 50.0%; in series [1] (Label release from TCO derivative 1.17 on CC49, ^89Zr, PBS), 50.0%; in series [1] (Label release from TCO derivative 1.2 on trastuzumab, ^111In, 50% mouse plasma in PBS), 52.2%; in series [1] (Label release from TCO derivative 1.2 on trastuzumab, ^111In, PBS), 53.4%; in series [1] (Label release from TCO derivative 1.4 on trastuzumab, ^111In, PBS), 57.9%. The “release (%)” value is 79.9% in series [1] (Label release from TCO derivative 1.8 on CC49, ^111In, PBS); 84.9% in series [1] (Label release from TCO derivative 1.8 on cetuximab, ^111In, PBS); 83.6% in series [1] (Label release from TCO derivative 1.8 on girentuximab, ^111In, PBS); 82.5% in series [1] (Label release from TCO derivative 1.8 on rituximab, ^111In, PBS); 82.4, 82.4^a % in series [1] (setting [5]); 82.4, 82.4^a % in series [1] (Label release from TCO derivative 1.8 on trastuzumab, ^111In, PBS). In addition, in series [1] (Label release from TCO derivative 1.8 on trastuzumab, ^177Lu, PBS), the “release (%)” value is listed as 81.2%. Besides, the “reduction in blood radioactivity with respect to control mice” value in series [2] (^111In-trastuzumab-1.8 (ca. 0.5 mg/kg) followed by 2.10 (ca. 33.5 μmol/kg) either 1 h or 24 h post-mAb, 24 h after Cleaving Agent) is “ca. 70%”. Moreover, the results for the “^111In biodistribution, Blood” value in series [2] (setting [6]) and in series [2] (setting [7]) were 3.61 ± 0.44 % injected dose per gram and 2.91 ± 0.53 % injected dose per gram, respectively. The “^111In biodistribution, Bone” value in series [2] (setting [6]) is reported as 0.44 ± 0.03 % injected dose per gram; in series [2] (setting [7]), 0.65 ± 0.03 % injected dose per gram. Further, the “^111In biodistribution, Brain” value in series [2] (setting [6]) was 0.13 ± 0.08 % injected dose per gram; in series [2] (setting [7]), 0.11 ± 0.02 % injected dose per gram. The “^111In biodistribution, Heart” value was 0.87 ± 0.10 % injected dose per gram in series [2] (setting [6]) and 0.93 ± 0.09 % injected dose per gram in series [2] (setting [7]). The “^111In biodistribution, Kidney L” value in series [2] (setting [6]) turned out to be 5.39 ± 0.84 % injected dose per gram; in series [2] (setting [7]), 4.75 ± 0.45 % injected dose per gram. The “^111In biodistribution, Lg. intestine” value in series [2] (setting [6]) came to 0.34 ± 0.07 % injected dose per organ; in series [2] (setting [7]), 0.56 ± 0.14 % injected dose per organ. For the same compound, the figures for the “^111In biodistribution, Liver” value in series [2] (setting [6]) and in series [2] (setting [7]) were 3.35 ± 0.10 % injected dose per gram and 4.68 ± 1.11 % injected dose per gram, respectively. For the same compound, in series [2] (setting [6]), the “^111In biodistribution, Lung” value was 1.94 ± 0.43 % injected dose per gram. For the same compound, the “^111In biodistribution, Muscle” value is recorded as 0.27 ± 0.02 % injected dose per gram in series [2] (setting [6]) and 0.29 ± 0.05 % injected dose per gram in series [2] (setting [7]). The results for the “^111In biodistribution, Sm. Intestine” value in series [2] (setting [6]) and in series [2] (setting [7]) were 0.61 ± 0.04 % injected dose per organ and 1.04 ± 0.21 % injected dose per organ, respectively. Also, the figures for the “^111In biodistribution, Spleen” value in series [2] (setting [6]) and in series [2] (setting [7]) were 1.19 ± 0.16 % injected dose per gram and 1.89 ± 0.17 % injected dose per gram, respectively. The “radioactivity uptake in tumors versus control mice” value in series [3] (euthanized 24 h later) is “somewhat lower”. Also, in series [3] (euthanized 24 h later (LS174T or BT-474)), the radioactivity in blood is recorded as 2-3 % ID/g.
For `O=C(O)CCCC(=O)Nc1cccnc1-c1nnc(-c2ncccc2NC(=O)CCCC(=O)O)nn1` [Compound 2.7, 5,5′-((2,2′-(1,2,4,5-Tetrazine-3,6-diyl)bis(pyridine-3,2-diyl))bis(azanediyl))bis(5-oxopentanoic acid)], the “release (%)” value in series [1] (setting [5]) is reported as 55.3^a %. Moreover, the “decrease of radioactivity circulating in blood” value in series [4] is reported as “ca. 30%”.
